The conditions of series [1]: recent reports; cited from earlier work.
The test system of series [2] is animal enzymes. The following applies: more recent studies; cited from earlier work.
The nature of series [3]: physchem. The settings on record: 0.01 n hcl.
For series [4] the following is noted: compared to digitoxin; cited from earlier work.
For series [5] the following is noted: in vivo; cited from earlier work.
The conditions of series [6]: 25° C.; cited from earlier work.
For series [7] the following is noted: from the gastrointestinal tract, cited from earlier work.

Values after ≈ are worked out from the molar mass of the structure shown.

The source of these data is US4021546A (priority 1976, dated 1977).

In the case of `CO[C@H]1[C@@H](O)C[C@H](O[C@H]2[C@@H](O)C[C@H](O[C@H]3[C@@H](O)C[C@H](O[C@H]4CC[C@@]5(C)[C@H](CC[C@@H]6[C@@H]5C[C@@H](O)[C@]5(C)[C@@H](C7=CC(=O)OC7)CC[C@]65O)C4)O[C@@H]3C)O[C@@H]2C)O[C@@H]1C` [4'"-methyldigoxin], in series [1], the demethylation in man entry is reported as “actually demethylated in man”. Also, the “resistance to degradation by animal enzymes” value in series [2] is “very resistant to degradation by animal enzymes”.
Broadly, the solubility is the concentration that dissolves in the medium under given conditions. In series [3], `C[C@H]1O[C@@H](O[C@H]2[C@@H](O)C[C@H](O[C@H]3[C@@H](O)C[C@H](O[C@H]4CC[C@@]5(C)[C@H](CC[C@@H]6[C@@H]5C[C@@H](O)[C@]5(C)[C@@H](C7=CC(=O)OC7)CC[C@]65O)C4)O[C@@H]3C)O[C@@H]2C)C[C@H](O)[C@@H]1O` [digoxin] came in with a solubility of about 78 µg/mL (≈ 99.9 µM). Besides, in series [4], the duration of action entry was “shorter” and the onset of action entry is on record as “quite more rapid”. For the same molecule, in series [5], the “closeness of therapeutic and toxic dose” value is listed as “extremely close”. The “solubility per ml of 0.1 N HCl” value in series [6] was “about 78 mcg/ml”. In addition, the “completeness of absorption vs digitoxin” value in series [7] (compared to digitoxin) is recorded as “not as completely absorbed”. Besides, the extent of absorption in series [7] is 50% to 70.
